The values below come from article PMC6588697, “Lugdunin amplifies innate immune responses in the skin in synergy with host- and microbiota-derived factors” (Nature Communications, 2019).

One test deals with HNEpCs. Nature of the test: Cytokine release into HNEpC supernatant (LEGENDplex / ELISA). In kind it is cell-based, human. The settings on record: 5 h, lugdunin 2 µM or Pam2Cys 100 ng/mL, two technical replicates, Fig 1f. A general note: ELISA stands for enzyme-linked immunosorbent assay.
In another test the test system is HTEpCs. Nature of the test: Cytokine release into HTEpC supernatant (LEGENDplex / ELISA). The settings on record: 5 h, lugdunin 2 µM or Pam2Cys 100 ng/mL, two technical replicates, Fig 1f. It counts as cell-based, human.
A further test concerns mouse skin. As to the kind of experiment: Immune cell composition of mouse skin after epicutaneous treatment (flow cytometry). In kind it is in vivo, C57BL/6 WT, MyD88-ko, 5xTLR-ko mice. As to conditions: for percentage of monocytes (Ly6C+Ly6G−) of CD11b+CD45+ live cells / percentage of neutrophils (Ly6C+Ly6G+) of CD11b+CD45+ live cells: Fig 3d. Here is the method:
Fig. 3 Epicutaneous lugdunin recruits phagocytic cells. a Schematic overview of the mouse experiments: 6–8-week-old female C5BL/6 wild-type (WT), MyD88-ko, or 5xTLR-ko mice were epicutaneously treated with 1.5 µg lugdunin or phosphate-buffered saline (PBS) as a control. After 24 h, mice were euthanized, immune cells were isolated from treated skin areas, and immune cell composition was analyzed by flow cytometry. b Shown is the mean percentage of CD45+ live cells in mouse skin of 10 C57BL/6 WT mice ± s.e.m. One mouse is represented as two dots analyzed by two different stainings. c Pie charts show the mean percentage of the different immune cell subsets in the skin of 10 WT mice after 24 h of PBS or lugdunin treatment. d Shown are representative flow cytometry data (left panel) and the mean percentage of neutrophils (Ly6C+Ly6G+) and monocytes (Ly6C+Ly6G−) pregated on CD11b+CD45+ live cells (see Supplementary Fig. 3a, f for the gating strategy) in mouse skin ± s.e.m. One dot represents one mouse. *P < 0.05. e Representative myeloperoxidase (MPO)-stained paraffin-embedded mouse skin sections. Scale bar, 100 µM. Source data are provided as a Source Data file TEXT PRINTED IN THE PICTURE: (c) PBS: NK cells: 21%; B cells: 0%; T cells: 10%; Dendritic cells: 8%; CD11b+ cells: 43%; Others: 18%; Macrophages: 73%; Monocytes: 15%; Neutrophils: 3%; Others: 9% | (c) Lugdunin: NK cells: 18%; B cells: 0%; T cells: 11%; Dendritic cells: 10%; CD11b+ cells: 45%; Others: 16%; Macrophages: 64%; Monocytes: 21%; Neutrophils: 6%; Others: 9% | (d) PBS: Monocytes 13,3 (WT); Neutrophils 2,51 (WT); Q4 83,6 (WT); Q3 0,53 (WT); Monocytes 2,34 (MyD88-ko); Neutrophils 0,95 (MyD88-ko); Q4 94,4 (MyD88-ko); Q3 2,27 (MyD88-ko); Monocytes 12,8 (5xTLR-ko); Neutrophils 0,88 (5xTLR-ko); Q4 85,0 (5xTLR-ko); Q3 1,32 (5xTLR-ko) | (d) Lugdunin: Monocytes 17,3 (WT); Neutrophils 11,1 (WT); Q4 70,6 (WT); Q3 0,99 (WT); Monocytes 3,14 (MyD88-ko); Neutrophils 0,54 (MyD88-ko); Q4 94,9 (MyD88-ko); Q3 1,41 (MyD88-ko); Monocytes 12,9 (5xTLR-ko); Neutrophils 1,74 (5xTLR-ko); Q4 84,3 (5xTLR-ko); Q3 1,06 (5xTLR-ko) DOUBTS OF THE COPYIST ABOUT THIS PICTURE: Panel c: the percentages are printed on the pie slices without cell-type names. They were matched to cell types only by the colour legend, so the match is not certain, especially among the blue shades of the lower pies. / PBS is the vehicle control, not a test substance. Its values are given because they are printed under that name. / Panel d: the quadrant numbers are in very small print, so 3, 5, 6, 8 and 9 cannot be told apart with certainty. / PBS WT, Monocytes 13,3: either 3 could be 8 / PBS WT, Neutrophils 2,51: 5 could be 6 / PBS WT, Q4 83,6: 8, 3 and 6 uncertain / PBS WT, Q3 0,53: 5 and 3 uncertain / PBS MyD88-ko, Monocytes 2,34: 3 could be 8 / PBS MyD88-ko, Neutrophils 0,95: 9 and 5 uncertain / PBS MyD88-ko, Q4 94,4: 9 uncertain / PBS 5xTLR-ko, Monocytes 12,8: 8 could be 3 / PBS 5xTLR-ko, Neutrophils 0,88: either 8 uncertain / PBS 5xTLR-ko, Q4 85,0: 8 and 5 uncertain / PBS 5xTLR-ko, Q3 1,32: 3 could be 8 / Lugdunin WT, Monocytes 17,3: 3 could be 8 / Lugdunin WT, Q4 70,6: 6 could be 8 / Lugdunin WT, Q3 0,99: either 9 uncertain / Lugdunin MyD88-ko, Monocytes 3,14: 3 could be 8 / Lugdunin MyD88-ko, Neutrophils 0,54: 5 could be 6 / Lugdunin MyD88-ko, Q4 94,9: either 9 uncertain / Lugdunin 5xTLR-ko, Monocytes 12,9: 9 could be 8 / Lugdunin 5xTLR-ko, Q4 84,3: 8 and 3 uncertain / Lugdunin 5xTLR-ko, Q3 1,06: 6 could be 8
To analyze the immune cell composition and cytokines in the skin, 15 µL containing 1.5 μg lugdunin or PBS as a control were epicutaneously applied for 24 h on the shaved back skin of C57BL/6 WT/MYD88-ko/5xTLR-ko mice. After 24 h, mice were euthanized and relevant skin areas or 4 mm skin punches were removed for immune cell analysis and LEGENDplex^TM (BioLegend) cytokine analysis. […]
A general note: In flow cytometry, cells or beads pass a laser one at a time.

Where [1] appears, read: 5xTLR-ko mice, 1.5 µg lugdunin 24 h, one value per mouse.
The mark [2] stands for this setting: MyD88-ko mice, 1.5 µg lugdunin 24 h, one value per mouse.
Where [3] appears, read: WT mice, 1.5 µg lugdunin 24 h, one value per mouse.

“And” between values parts separate entries of the source, which are not always exact repeats. Identical values can stand only once.

As for Lugdunin, the “CXCL8 concentration in supernatant” value in the test on HNEpCs was 421.035 and 417.001; in the test on HTEpCs, 214.845 and 210.300. Besides, the “percentage of monocytes (Ly6C+Ly6G−) of CD11b+CD45+ live cells” value was “completely impaired and 20.3% and 17.1% and 9.43% and 21.4% and 16.9% and 6.11% and 12.9%” in the test on mouse skin (setting [1]); “completely impaired and 8.96% and 15.5% and 8.8% and 15.6% and 3.14% and 1.49% and 4.64% and 1.54%” with mouse skin (setting [2]); “significantly enhanced recruitment and 15.8% and 17.3% and 13.3% and 8.16% and 21.5% and 17.9% and 10.5% and 16.5% and 16% and 7.28%” in the test on mouse skin (setting [3]). The “percentage of neutrophils (Ly6C+Ly6G+) of CD11b+CD45+ live cells” value in the test on mouse skin (setting [1]) was “completely impaired and 5.72% and 2.72% and 4.06% and 8.41% and 1.29% and 0.57% and 1.74%”; with mouse skin (setting [2]) it was “completely impaired and 2.26% and 5.17% and 2.81% and 2.01% and 0.54% and 0.23% and 0.5% and 0.44%”; in the test with mouse skin (setting [3]) it was “significantly enhanced recruitment and 2.57% and 6.43% and 4.87% and 2.11% and 8.34% and 11.1% and 2.51% and 1.25% and 4.02% and 5.05%”. In addition, the “percentage of CD45+ live cells in mouse skin” value with mouse skin (10 WT mice, 1.5 µg lugdunin epicutaneous 24 h, each mouse two values (two stainings), Fig 3b) was 14.9% and 13.5% and 14.7% and 11.7% and 14.6% and 11.5% and 13.9% and 11.3% and 13.1% and 10.2% and 12.2% and 10.7% and 12.3% and 10.1% and 6.9% and 8.55%. Moreover, the “NK cells, % NK1.1+ cells of live CD45+ cells” value in the test on mouse skin (WT mice, 1.5 µg lugdunin 24 h, one value per mouse, Supp Fig 3b) was 17.7% and 16.5% and 19.9% and 14.6% and 15.5% and 15.6% and 22.8% and 24.4% and 19.7% and 17.2%. For the same substance, in the test with mouse skin (WT mice, 1.5 µg lugdunin 24 h, one value per mouse, Supp Fig 3c), the “B cells, % CD19+ cells of live CD45+ cells” value is 0% and 0.14% and 0.15% and 0.03% and 0.04% and 0.05% and 0.01% and 0.02%. Further, the “Dendritic cells, % CD11c+ cells of live CD45+ cells” value in the test on mouse skin (WT mice, 1.5 µg lugdunin 24 h, one value per mouse, Supp Fig 3e) is 16.5% and 7.96% and 9.38% and 7.83% and 7.66% and 8.63% and 12.4% and 7.01% and 13.5% and 11.2%. In the test with mouse skin (WT mice, 1.5 µg lugdunin 24 h, one value per mouse, Supp Fig 3f), the “CD11b+ cells, % of live CD45+ cells” value was 25.3% and 49.5% and 44.6% and 53.3% and 45% and 48.5% and 39.3% and 50.8% and 43.6%. Further, the “Macrophages, % F4/80+ cells of CD11b+ CD45+ live cells” value in the test on mouse skin (WT mice, 1.5 µg lugdunin 24 h, one value per mouse, Supp Fig 3g) was “slightly reduced and 61.4% and 62.3% and 69.6% and 70.5% and 63.1% and 61.1% and 64.2% and 53.1% and 77.9%”. For the same substance, in the test on mouse skin (WT mice, 1.5 µg lugdunin 24 h, one value per mouse, Supp Fig 3d), the “T cells, % CD3+ cells of live CD45+ cells” value is 14.9% and 10.6% and 8% and 7.67% and 10.1% and 12.6% and 9.79% and 11.5% and 8.32% and 13.4%.
